Structures are written as SMILES.

Common to all, as to format: cell-based, human
Holding throughout (settings): mean ± standard error

One assay deals with HepG2. Description: Cell viability, crystal violet assay, HepG2. The text has this: (§1) The human hepatoma cell line HepG2 was obtained from the American Tissue Culture Collection (ATCC, Manassas, VA, USA). The human hepatoma cell line Hep3B was obtained from the European Collection of Authenticated Cell Cultures (ECACC, Porton Down, Salisbury, Wiltshire, UK). HH4 non-transformed human hepatocyte cell line (kindly provided by Dr. I. Fabregat, Molecular Oncology, Bellvitge Biomedical Research Institute, Spain) was established as described.
(§2) HepG2 and Hep3B cell lines were maintained in Eagle’s Minimum Essential Medium and HH4 cell line was grown in Ham´s F12 Nutrient Mixture (Sigma-Aldrich, St Louis, MO, USA). Both culture media were supplemented with 10% heat inactivated fetal bovine serum, 2 mM L-glutamine and antibiotics (0.1 mg/mL streptomycin and 100 U/mL penicillin) (Sigma-Aldrich, St Louis, MO, USA). Cell cultures were grown in an incubator at 37 °C with 5% CO2 atmosphere. After reaching approximately 80% of confluence, cells were detached in a solution of 0.1% trypsin and 0.04% EDTA and plated as required for further experiments.
(§3) Cell lines were seeded into 96-well plates at 5 × 10^3 (HepG2) and 3 × 10^3 (Hep3B and HH4) cells/well 24 h before treatment. Increasing concentrations of the monomer trans-resveratrol, the dimers ampelopsin A and trans-ε-viniferin and the tetramers isohopeaphenol, hopeaphenol, R2-viniferin and R-viniferin were then added and cells were incubated for 24, 48, and 72 h. Stilbenes were dissolved in dimethyl sulfoxide (DMSO), Sigma-Aldrich, St Louis, MO, USA) at a final concentration of 0.01%. The same amount of DMSO was added to control cells. After treatment, the cell viability was determined using the crystal violet assay. The absorbance was recorded at 590 nm in a Synergy HT microplate reader (BioTek, Winooski, VT, USA). Cell viability was calculated as the percentage of viable cells treated with stilbene versus untreated control cells using the following equation: Cell viability (%) = [OD (Treatment) − OD (Blank)]/[OD (Control) − OD (Blank)] × 100. The cytotoxic effect of stilbenes was determined by calculating IC50 values using non-linear regression analysis (GraphPad Prism 6, San Diego, CA, USA).
(§4) The statistical package SPSS 19.0 (SPSS Inc. Chicago, IL, USA) was used for data analysis. The results were expressed as mean ± standard error (SE) from at least three experiments. Statistical significance for the differences of the means was estimated by parametric Student’s t-test. Differences between means were considered statistically significant for p < 0.05. IC50 values were derived from fitting the data to a sigmoidal dose-response curve with a three-parameter logistic model using Graph Pad Prism 6.

The test system of another assay is HH4. Put plainly: Cell viability, crystal violet assay, HH4 non-transformed hepatocytes.
Excerpt: as §1, §2, §3, §4

The next assay deals with Hep3B. Put plainly: Cell viability, crystal violet assay, Hep3B.
Excerpt: as §1, §2, §3, §4

Where [1] appears, read: Homo sapiens, HepG2, 24 h, 24 h.
Where [2] appears, read: Homo sapiens, HepG2, 48 h, 48 h.
Setting [3] is: Homo sapiens, HepG2, 72 h, 72 h.

As to `Oc1ccc([C@H]2c3c(O)cc(O)cc3[C@H]3c4c(cc(O)cc4[C@@H]2O)O[C@@H]3c2ccc(O)cc2)cc1` [Ampelopsin A], the IC50 in the assay with HepG2 (72 h) is 75.5 ± 21.5 µM; with HepG2 (setting [1]) it was > 200 µM; with HepG2 (setting [2]), 98.6 ± 24.9 µM; in the assay with HepG2 (setting [3]), 76 µM; with HH4 (Homo sapiens, Hepatocyte, 24 h) it was > 200 µM; with HH4 (Homo sapiens, Hepatocyte, 48 h), 178 ± 67.8 µM. The IC50 in the assay on HH4 (Homo sapiens, Hepatocyte, 72 h) was 134 ± 34.7 µM; with Hep3B (Homo sapiens, Hep3B, 24 h) it was > 200 µM; in the assay on Hep3B (Homo sapiens, Hep3B, 48 h) it was 148 ± 14.4 µM; with Hep3B (Homo sapiens, Hep3B, 72 h) it was 109 ± 7.3 µM.

As to `Oc1ccc([C@H]2c3c(O)cc(O)cc3[C@H]3c4c(cc(O)cc4[C@@H]2[C@H]2c4cc(O)cc5c4[C@H](c4cc(O)cc(O)c4[C@@H]2c2ccc(O)cc2)[C@@H](c2ccc(O)cc2)O5)O[C@@H]3c2ccc(O)cc2)cc1` [Hopeaphenol], the concentration for half-maximal inhibition (IC50) is 24.4 ± 2 µM in the assay on HepG2 (72 h); > 200 µM with HepG2 (setting [1]); 27 ± 3.3 µM in the assay on HepG2 (setting [2]); 24 µM with HepG2 (setting [3]); > 200 µM in the assay on HH4 (Homo sapiens, Hepatocyte, 24 h); 92 ± 38 µM in the assay with HH4 (Homo sapiens, Hepatocyte, 48 h). Moreover, the IC50 in the assay with HH4 (Homo sapiens, Hepatocyte, 72 h) is 37.6 ± 13 µM; in the assay with Hep3B (72 h), 13.1 ± 4.1 µM; with Hep3B (Homo sapiens, Hep3B, 24 h), > 200 µM; with Hep3B (Homo sapiens, Hep3B, 48 h) it was 16.8 ± 2.3 µM; in the assay on Hep3B (Homo sapiens, Hep3B, 72 h) it was 13 µM.

For the molecule `Oc1ccc([C@@H]2c3c(O)cc(O)cc3[C@H]3c4c(cc(O)cc4[C@@H]2[C@H]2c4cc(O)cc5c4[C@H](c4cc(O)cc(O)c4[C@H]2c2ccc(O)cc2)[C@@H](c2ccc(O)cc2)O5)O[C@@H]3c2ccc(O)cc2)cc1` [Isohopeaphenol], the half-inhibitory concentration (IC50) is 54.1 ± 34 µM in the assay with HepG2 (72 h); 113 ± 33 µM in the assay with HepG2 (setting [1]); 68.8 ± 31 µM in the assay with HepG2 (setting [2]); 54 µM with HepG2 (setting [3]); > 200 µM with HH4 (Homo sapiens, Hepatocyte, 24 h); 96 ± 5.5 µM in the assay with HH4 (Homo sapiens, Hepatocyte, 48 h). Moreover, the half-inhibitory concentration (IC50) in the assay with HH4 (Homo sapiens, Hepatocyte, 72 h) amounted to 63.7 ± 3.7 µM; in the assay on Hep3B (Homo sapiens, Hep3B, 24 h) it was 86.6 ± 11.7 µM; in the assay with Hep3B (Homo sapiens, Hep3B, 48 h), 37 ± 4.5 µM; with Hep3B (Homo sapiens, Hep3B, 72 h), 26 ± 3 µM.

Consider `Oc1ccc([C@H]2Oc3cc(O)cc(/C=C/c4ccc5c(c4)[C@@H](c4cc(O)cc6c4[C@H](c4cc(O)cc(O)c4)[C@@H](c4ccc(O)cc4)O6)[C@H](c4ccc(O)cc4)O5)c3[C@@H]2c2cc(O)cc(O)c2)cc1` [R-Viniferin], for which the IC50 in the assay on HepG2 (setting [1]) was > 200 µM; with HepG2 (setting [2]), > 200 µM; in the assay on HepG2 (setting [3]), 192 ± 27.1 µM; with Hep3B (Homo sapiens, Hep3B, 24 h) it was > 200 µM; with Hep3B (Homo sapiens, Hep3B, 48 h) it was 137 ± 19.8 µM; with Hep3B (Homo sapiens, Hep3B, 72 h) it was 135 ± 35.7 µM.

For `Oc1ccc(/C=C/c2cc(O)cc(O)c2)cc1` [trans-Resveratrol, reference compound], the IC50 was 30.3 ± 4.4 µM in the assay on HepG2 (72 h); > 200 µM in the assay with HepG2 (setting [1]); 40.3 ± 9.3 µM in the assay with HepG2 (setting [2]); 30 µM with HepG2 (setting [3]); > 200 µM in the assay on HH4 (Homo sapiens, Hepatocyte, 24 h); 135 ± 9 µM in the assay on HH4 (Homo sapiens, Hepatocyte, 48 h). Also, the IC50 in the assay on HH4 (Homo sapiens, Hepatocyte, 72 h) was 93 ± 16.1 µM; in the assay on Hep3B (Homo sapiens, Hep3B, 24 h) it was > 200 µM; in the assay on Hep3B (Homo sapiens, Hep3B, 48 h) it was 42 ± 11.6 µM; in the assay on Hep3B (Homo sapiens, Hep3B, 72 h) it was 21 ± 16.8 µM.

As to `Oc1ccc(/C=C/c2cc(O)cc3c2[C@@H](c2cc(O)cc(O)c2)[C@H](c2ccc(O)cc2)O3)cc1` [trans-ε-Viniferin], the concentration for half-maximal inhibition (IC50) is 140 ± 39.7 µM with HepG2 (setting [1]); 104 ± 19.2 µM with HepG2 (setting [2]); 94.8 ± 28.3 µM with HepG2 (setting [3]); 178 ± 20.5 µM in the assay with HH4 (72 h); > 200 µM in the assay with HH4 (Homo sapiens, Hepatocyte, 24 h); 193 ± 21.1 µM in the assay on HH4 (Homo sapiens, Hepatocyte, 48 h). Besides, the IC50 in the assay on HH4 (Homo sapiens, Hepatocyte, 72 h) worked out at 178 µM; in the assay on Hep3B (72 h), 63.1 ± 10.8 µM; in the assay on Hep3B (Homo sapiens, Hep3B, 24 h), 108 ± 31.8 µM; with Hep3B (Homo sapiens, Hep3B, 48 h), 73.9 ± 17.3 µM; in the assay with Hep3B (Homo sapiens, Hep3B, 72 h), 63 µM.

What is called IC50 is the point on the concentration scale where inhibition reaches its midpoint.

Values taken from publication PMC7346113, “Screening of Natural Stilbene Oligomers from Vitis vinifera for Anticancer Activity on Human Hepatocellular Carcinoma Cells” (Antioxidants, 2020).
